Molecular target: T1, human 5-hydroxytryptamine-2C (h5-HT2C) receptor (Homo sapiens, UniProt P28335)
T1 construct: expressed in transfected cells; host or cells: CHO (Chinese Hamster Ovary) cells; membrane preparation
T1 sequence (P28335 33-458): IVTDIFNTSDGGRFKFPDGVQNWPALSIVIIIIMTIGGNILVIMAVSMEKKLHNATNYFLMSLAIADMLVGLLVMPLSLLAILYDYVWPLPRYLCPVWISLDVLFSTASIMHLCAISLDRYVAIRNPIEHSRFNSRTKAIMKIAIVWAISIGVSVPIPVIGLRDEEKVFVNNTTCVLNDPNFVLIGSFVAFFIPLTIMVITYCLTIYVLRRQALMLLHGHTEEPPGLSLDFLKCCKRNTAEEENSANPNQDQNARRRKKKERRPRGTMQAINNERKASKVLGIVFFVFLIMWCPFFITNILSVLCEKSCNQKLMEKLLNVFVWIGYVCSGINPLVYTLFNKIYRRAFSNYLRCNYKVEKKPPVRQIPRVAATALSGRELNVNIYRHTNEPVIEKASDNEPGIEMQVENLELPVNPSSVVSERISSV
Test: [125I]DOI radioligand binding to membranes of CHO cells expressing the h5-HT2C receptor

Compound: CSc1ccc2c(c1)C(N1CCN(C)CC1)Cc1ccccc1S2 (centres unmarked) [Methiothepin]
- Ki (displacement of [125I]DOI, CHO cell membranes, room temperature 60 min, read-out: Ki (95% confidence interval)): 4.6 nM

Compound: COc1cc(CC(C)N)c(OC)cc1I (centres unmarked) [[^125I] DOI]
- Kd (read-out: dissociation constant, KD of [125I] DOI, saturation binding with increasing concentrations of [125I]DOI): 0.4 nM

From patent US20060258739A1, “Dihydrobenzofuran derivatives and uses therof” (Wyeth, priority 2005, published 2006)
